# Measured values reported in PMC10644722, “Discovery of inhibitors of protein tyrosine phosphatase 1B contained in a natural products library from Mexican medicinal plants and fungi using a combination of enzymatic and in silico methods**” (Frontiers in Pharmacology, 2023).
# Values joined by “and” are separate entries in the source; they are usually repeats but may differ in a detail not shown here. Identical values can stand only once. “Also recorded” adds a separate entry of the source. Like-named read-outs stand apart in the source and are kept apart here.
# Tests used:
# [1] = biological target: T1, hPTP1B1-400 (Homo sapiens, UniProt P18031); assay: PTP1B inhibition assay (spectrophotometric, 4-nitrophenyl phosphate); format: biochemical; details: for ΔA, activity difference between UA and the compound: absolute pIC50 difference against ursolic acid
# T1 sequence (P18031 1-400): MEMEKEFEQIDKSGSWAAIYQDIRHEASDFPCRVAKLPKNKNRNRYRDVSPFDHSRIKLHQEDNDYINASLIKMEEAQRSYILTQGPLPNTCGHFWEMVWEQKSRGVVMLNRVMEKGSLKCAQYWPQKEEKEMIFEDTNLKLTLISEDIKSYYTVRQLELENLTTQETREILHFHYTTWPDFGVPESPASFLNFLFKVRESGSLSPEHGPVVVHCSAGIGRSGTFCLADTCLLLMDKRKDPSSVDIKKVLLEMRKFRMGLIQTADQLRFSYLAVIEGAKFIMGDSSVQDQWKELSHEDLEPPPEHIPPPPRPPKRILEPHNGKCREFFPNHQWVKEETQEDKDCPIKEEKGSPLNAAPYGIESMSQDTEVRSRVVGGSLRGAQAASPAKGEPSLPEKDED
# Protocol: The inhibitory activity was determined as a percentage compared to the blank (Buffer) according to the following equation: %InhibitionPTP1B=1−A405s/A405b×100%, (1) where A405(s) is the ΔA of the sample (At20 − At0), A405(b) is the ΔA of the blank obtained in the same manner as that of the sample. Using the data obtained, the enzyme inhibition curve was plotted, for which the average percentage of inhibition was plotted as a function of the inhibitor concentration.
# [2] = biological target: T2, PTP1B (Homo sapiens, UniProt P18031); assay: Kinetic analysis of PTP1B inhibition; format: biochemical; details: for type of inhibition: double-reciprocal plots, global nonlinear fit; for VMAX: maximum velocity, nonlinear fit, substrate 4-NP
# T2 sequence (P18031 1-400): T1 sequence (P18031 1-400)
# Protocol: The conditions for preparing reagents (enzyme and substrate), incubation, and analysis of results were the same as that described in Section 2.1 ([Jiménez-Arreola et al., 2020]; [Díaz-Rojas et al., 2021]). Additional steps in the methodology are described below.
# To characterize the type of inhibition exerted by 1, 3, and 6 on PTP1B, the hydrolysis of 4-NP at the sub-saturating state and increasing concentrations of each compound was measured. […] The compound concentration yielding 50% activity inhibition was interpolated from the results by fitting into a general inhibition model. The resulting set of activities was fitted globally using the non-linear regression algorithm of Levenberg–Marquardt as implemented in the Gnuplot ([Williams et al., 2017]). Each group was fitted to the kinetic equations for linear competitive, linear uncompetitive, linear non-competitive (classic), linear mixed type, parabolic competitive, parabolic uncompetitive, and parabolic non-competitive inhibition mechanisms. The best fit was ascertained by the reduced chi-squared (χ^2) value, residual distribution, and uncertainty in the parameter estimates. The best description of the inhibition data for compounds 1, 3, and 6 was obtained with Eq. 2, Eq. 3, and Eq. 4, respectively, where VMAX, KM, and KIcu, KIC, and KIU are the maximum velocity, Michaelis constant for the substrate 4-NP, and inhibition constants for each type of inhibition, respectively. v0=VMAX4NP/KM1+I/KIcu+4NP1+I/KIcu, (2) v0=VMAX4NP/KM1+I/KIC+4NP1+I/KIU, (3) v0=VMAX4NP/KM1+I/KIC+I^2/KIC2^2+4NP. (4)
# [3] = tested on: ICR mice; details: male, mouse, in vivo, 14 days
# Protocol: The potential acute toxicity of compound 6 was determined according to the Lorke’s method ([Lorke, 1983]). The evaluation was performed following the Official Mexican Norm for Laboratory Animal Care and Use (NOM-062-ZOO-1999), with international conventional codes for laboratory animal use, and approved by the Institutional Committee for Care and Use of Laboratory Animals (CICUAL-FQ), Facultad de Química, UNAM (FQ/CICUAL/440/21). […]. At the end of the experiments, the mice were euthanized by hypoxia in a CO2 chamber.
# Compound 6 was fed by an intragastric route in two independent phases. In each case, 12 mice were divided into four groups (n = 3). In the first stage, the animals were treated with 10, 100, and 1,000 mg/kg; in the second phase, 1,600, 2,900, and 5,000 mg/kg were administered. The control animals were fed 0.05% Tween 80® in saline solution. The weight of the animals was measured daily for 14 days at each stage. At the end of the test, all animals were euthanized to obtain the lungs, heart, kidneys, and liver to detect macroscopic organ injury.
# [4] = tested on: PTP1B; parameters: method as in Lantz et al., 2010; Kumar et al., 2020; details: known inhibitors of PTP1B; ref Lantz et al., 2010; Kumar et al., 2020; cited from earlier work
# [5] = DoseResp model fit, Origin 8.0, axis C (mM), read-out: LOGx0 of the IC50 curve
# [6] = enzyme 66 nM, 4-NP 0.125 mM, Tris-HCl pH 6.8, 20 min, room temperature, read-out: IC50
# [7] = negative log of the IC50 in Molar, read-out: pIC50 (converted)
# [8] = mixed type (Eq. 3) or parabolic competitive model (Eq. 4), read-out: KIC
# [9] = Hill1 model fit, Origin 8.0, axis C (mM), read-out: k of the IC50 curve
# [10] = negative log of the IC50 in Molar
Compound,"IC50 [1, 5]","ΔA, activity difference between UA and the compound [1]","IC50 [1, 6]","IC50 [1, 7]",other results
"C[C@H]1C(=O)CC[C@@H]2[C@]1(C)CC[C@H]1[C@@]2(C)CC[C@@]2(C)[C@@H]3CC(C)(C)CC[C@]3(CO)CC[C@]12C [Compound 1, Canophyllol]",0.0332 ± 0.00257 mM,0.2,0.0332 ± 3e-06 mM,0.0331 mM,"%I ([1]; 0.02 mM compound): 95.54 ± 1.82%; %I ([1]; 1 mM compound): 98.59 ± 0.28%; type of inhibition [2]: non-competitive inhibitor; VMAX [2]: 44.1 mM/min; Ki ([2]; non-competitive model (Eq. 2), read-out: KIcu): 9 µM"
"COc1c(O)cc2ccc3cccc(O)c3c2c1OC [Compound 3, 3,4-Dimethoxy-2,5-phenanthrenediol]",0.0477 ± 0.0982 mM,0.34 and 0.3,0.0477 ± 0.0001 mM,0.0479 mM,"%I ([1]; 0.02 mM compound): 70.62 ± 0.58%; %I ([1]; 1 mM compound): 97.4 ± 0.69%; type of inhibition [2]: mixed-type; also recorded: mixed inhibitor; VMAX [2]: 56.1 mM/min; Ki [2, 8]: 40 µM; Ki ([2]; mixed type model (Eq. 3), read-out: KIU): 110 µM"
"CC=CC1=CC=CC(=C2C(=O)CNC2=O)O1 [Compound 6, E/Z-vermelhotin]",0.0796 ± 0.0957 mM,0.6 and 0.56,0.0796 ± 0.0001 mM,0.0794 mM,"type of inhibition [2]: competitive parabolic inhibition; VMAX [2]: 24.7 mM/min; Ki [2, 8]: 31 µM; Ki ([2]; parabolic competitive model (Eq. 4), second inhibitor molecule, read-out: KIC2): 20 µM; LC50 [3]: higher than 5,000 mg/kg"
"COC(=O)/C(C)=C\CC[C@H](C)[C@@H]1CC[C@]2(C)C3=CCC4C(C)(C)C(=O)CC[C@]4(C)C3CC[C@@]12C (stereo partly shown) [Compound 86, Methyl ester of masticadienonic acid]",0.325 ± 0.00894 mM,1.2,0.3245 ± 1e-06 mM,0.324 mM,–
"CC(=CCCC(C)C1CCC2(C)C3=C(CCC12C)C1(C)CCC(=O)C(C)(C)C1CC3)C(=O)O (stereo not shown) [Compound 89, Isomasticadienonic acid]",0.419 ± 0.00938 mM,1.3 and 1.28,0.419 ± 1e-05 mM,0.417 mM,–
"CC(=O)OCC(C)C1CCC2(C)C1CCC1(C)C2CCC2C3(C)CCCC(C)(C)C3CCC21C (stereo not drawn) [Compound 90, 21-α-H-Hopane acetate]",–,1.6 and 1.61,0.8839 ± 0.0002 mM,0.891 mM,"IC50 [1, 9]: 0.884 ± 0.213 mM"
"COc1cc(CCc2ccc(OC)c(OC)c2)cc(OC)c1 [Compound 91, 3,3',4',5-Tetramethoxybibenzyl]",–,1.3,–,–,"IC50 ([1]; IC50 (μM), enzyme 66 nM, 4-NP 0.125 mM, Tris-HCl pH 6.8, 20 min, room temperature): 0.4195 ± 6e-06 mM; IC50 ([1]; LOGx0 of the IC50 curve, DoseResp model fit, Origin 8.0, axis C (mM)): 0.42 ± 0.00629 mM; IC50 ([1]; pIC50, negative log of the IC50 in Molar): 0.417 mM"
"CC1(C)C=Cc2cc3ccc(=O)oc3cc2O1 [Compound 93, Xanthyletin]",–,1.6,0.8646 ± 0.00015 mM,0.871 mM,"IC50 [1, 9]: 0.865 ± 0.148 mM"
"COc1c2c(cc3oc(C)cc(=O)c13)OC(C)(C)[C@H](O)C2 [Compound 94, (+)-5-Methoxyhamaudol]",–,1.1,0.2985 ± 0.00015 mM,–,"IC50 [1, 9]: 0.298 ± 0.146 mM; pIC50 [1, 10]: 3.53"
"C=CC(C)(C)C12CC3(O)c4nc5ccccc5c(=O)n4C(C(C)C)C(=O)N3C1N(C(C)=O)c1ccccc12 (stereo not shown) [Compound 96, Albolutein A]",–,-0.1,0.0191 ± 0.0014 mM,0.0191 mM,–
"C=CC(C)(C)[C@@]12Nc3ccccc3[C@]1(O)C[C@@]1(O)c3nc4ccccc4c(=O)n3[C@@H](C(C)C)C(=O)N12 [Compound 97, Albolutein B]",–,0.1,0.0258 ± 0.0258 mM,–,"pIC50 [1, 10]: 4.59"
"Cc1cc(-c2c3ccccc3c(Br)c3sc(C)c(C)c23)cc(C)c1O[C@H](Cc1ccccc1)C(=O)O [E, ertiprotafib]",–,–,–,–,pIC50 [4]: 4.70
"CC(C)[C@@H](CC[C@@H](C)[C@H]1CC[C@H]2[C@@H]3[C@H](O)C[C@H]4C[C@@H](NCCCNCCCCNCCCN)CC[C@]4(C)[C@H]3CC[C@]12C)OS(=O)(=O)O [T, trodusquemine]",–,–,–,–,pIC50 [4]: 6.0
Albolutein C [Compound 98],–,0.8,0.13 ± 0.0026 mM,–,"pIC50 [1, 10]: 3.89"
Calein A [Compound 46],0.234 ± 0.0196 mM,1.0,0.2345 ± 2e-05 mM,–,"pIC50 [1, 10]: 3.63"
